As a reminder, the IC50 is the concentration needed to halve the response being measured.

Where a SMILES comes first, the peptide text is derived from it. Bridges are numbered along the chain shown (N, C = ends). [ ]: non-standard residue; d: D form. The star is where a group is joined. ξ: configuration not given here. Phe(3-CF3) = N[C@@H](Cc1cccc(C(F)(F)F)c1)C(=O)O; Phe(4-COOH) = N[C@@H](Cc1ccc(C(=O)O)cc1)C(=O)O; Phe(4-CH2NH2) = NCc1ccc(C[C@H](N)C(=O)O)cc1; Bip = N[C@@H](Cc1ccc(-c2ccccc2)cc1)C(=O)O; Phe(3-Me) = Cc1cccc(C[C@H](N)C(=O)O)c1; 3Pal = N[C@@H](Cc1cccnc1)C(=O)O; 4Pal = N[C@@H](Cc1ccncc1)C(=O)O; 2Thi = N[C@@H](Cc1cccs1)C(=O)O; Cha = N[C@@H](CC1CCCCC1)C(=O)O; Cit = NC(=O)NCCC[C@H](N)C(=O)O; Thr(3ξ) = CC(O)[C@H](N)C(=O)O; Tle = CC(C)(C)[C@H](N)C(=O)O; dOrn = NCCC[C@@H](N)C(=O)O; Carboxymethyl = O=C(O)C*; Nle = CCCC[C@H](N)C(=O)O; Orn = NCCC[C@H](N)C(=O)O; Dab = NCC[C@H](N)C(=O)O; Dap = NC[C@H](N)C(=O)O

Consider 15 molecules from patent US20250163104A1, “MACROCYCLIC IMMUNOMODULATORS” (priority 2021, published 2025).

In this experiment the target is T1, human PD-1 / PD-L1-Ig binding on Jurkat cell line over-expressing human PD-1 (Jurkat-PD-1) (Homo sapiens, UniProt Q15116).
T1 construct: expressed in transfected cells; host or cells: Jurkat
T1 sequence (Q15116 25-288): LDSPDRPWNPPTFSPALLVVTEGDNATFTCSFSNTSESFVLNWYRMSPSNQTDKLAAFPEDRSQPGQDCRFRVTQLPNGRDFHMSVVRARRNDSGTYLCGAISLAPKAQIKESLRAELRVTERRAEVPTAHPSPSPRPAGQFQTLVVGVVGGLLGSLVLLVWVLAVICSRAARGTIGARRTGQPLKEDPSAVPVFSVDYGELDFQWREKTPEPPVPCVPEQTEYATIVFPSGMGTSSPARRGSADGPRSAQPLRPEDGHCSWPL
Description: Jurkat-PD-1 Cell Binding High-Content Screening Assay (CBA). Type of experiment: cell-based. The conditions noted are these: Jurkat-PD-1 cells, PE-labeled PD-L1-Ig 20 nM final; read-out: Jurkat HPD1_PDL1 IC50. The essentials: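 Cell-bound PE-labeled PD-L1-Ig (20 nM final, 1 h) measured by high-content imaging after fixation and Hoechst 33342 counterstain. Compound was applied first for 2 h at 37° C. to Jurkat cells over-expressing human PD-1 in DMEM with 10% FCS.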

Turning to `CC(C)C[C@@H]1NC(=O)[C@H](Cc2c[nH]c3ccccc23)NC(=O)[C@H](CC(=O)O)NC(=O)[C@H](Cc2ccc(O)cc2)NC(=O)[C@H](Cc2ccccc2)NC(=O)CSC[C@@H](C(=O)N[C@@H](C)C(N)=O)NC(=O)[C@H](CO)NC(=O)[C@H](C(C)C)NC(=O)[C@H](CC(C)C)NC(=O)[C@H](CC(N)=O)NC(=O)[C@@H](C)NC(=O)[C@@H](CCCN)NC(=O)[C@H](C(C)C)NC(=O)[C@H](Cc2ccc(-c3ccccc3)cc2)NC1=O` [Compound 2001] ({CH2CO}-FYDWL[Bip]V[dOrn][dA]NLVSCA-NH2; thioether N-14), the IC50 stood at 42.1 nM.

In the case of `CC(C)C[C@H]1NC(=O)[C@H](CCCN)NC(=O)[C@H](CCC(=O)O)NC(=O)[C@H](Cc2ccc(-c3ccccc3)cc2)NC(=O)[C@H](C(C)C)NC(=O)[C@H](Cc2cccc(C(F)(F)F)c2)NC(=O)[C@H](CC(=O)O)NC(=O)[C@H](Cc2ccncc2)NC(=O)[C@H](Cc2ccc(OCC(=O)O)cc2)NC(=O)CSC[C@@H](C(=O)N[C@@H](C)C(N)=O)NC(=O)[C@H]([C@@H](C)O)NC(=O)[C@H](C(C)C)NC(=O)[C@H](CC2CCCCC2)NC(=O)[C@H](CCN)NC1=O` [Compound 1462] ({CH2CO}-Y(Carboxymethyl)[4Pal]D[Phe(3-CF3)]V[Bip]E[Orn][dL][Dab][Cha]VTCA-NH2; thioether N-14), the IC50 worked out at 16.8 nM.

For `CC(C)C[C@H]1NC(=O)[C@H](CCCN)NC(=O)[C@H](C(C)O)NC(=O)[C@H](Cc2ccc(-c3ccccc3)cc2)NC(=O)[C@H](C(C)C)NC(=O)[C@H](Cc2c[nH]c3ccccc23)NC(=O)[C@H](CC(=O)O)NC(=O)[C@H](Cc2ccc(OCC(=O)O)cc2)NC(=O)[C@H](CN)NC(=O)CSC[C@@H](C(=O)N[C@@H](CC(N)=O)C(N)=O)NC(=O)[C@H](C(C)O)NC(=O)[C@H](C(C)C)NC(=O)[C@H](CC2CCCCC2)NC(=O)[C@H](Cc2c[nH]cn2)NC1=O` (stereo partly drawn) [Compound 2552] ({CH2CO}-[Dap]Y(Carboxymethyl)DWV[Bip][Thr(3ξ)][Orn][dL]H[Cha]V[Thr(3ξ)]CN-NH2; thioether N-14), the IC50 came to 28.6 nM.

For the molecule `CCC[C@@H]1NC(=O)[C@H](Cc2ccc(-c3ccccc3)cc2)NC(=O)[C@H](C(C)C)NC(=O)[C@H](Cc2c[nH]c3ccccc23)NC(=O)[C@H](CC(=O)O)NC(=O)[C@H](Cc2ccc(C(=O)O)cc2)NC(=O)[C@H](Cc2ccncc2)NC(=O)CSC[C@@H](C(=O)N[C@@H](C)C(N)=O)NC(=O)[C@H]([C@@H](C)O)NC(=O)[C@H](C(C)C)NC(=O)[C@H](CC2CCCCC2)NC(=O)[C@H](Cc2cnc[nH]2)NC(=O)[C@@H](CC(C)C)NC(=O)[C@H](CCCN)NC1=O` [Compound 1623], the IC50 was determined as 27 nM.

For `CC(C)C[C@H]1NC(=O)[C@H](CCCN)NC(=O)[C@H](CCCNC(N)=O)NC(=O)[C@H](Cc2ccc(-c3ccccc3)cc2)NC(=O)[C@H](C(C)C)NC(=O)[C@H](Cc2c[nH]c3ccccc23)NC(=O)[C@H](CC(=O)O)NC(=O)[C@H](Cc2ccc(CN)cc2)NC(=O)[C@H](CN)NC(=O)CSC[C@@H](C(=O)N[C@@H](C)C(N)=O)NC(=O)[C@H]([C@@H](C)O)NC(=O)[C@H](C(C)C)NC(=O)[C@H](CC2CCCCC2)NC(=O)[C@H](CCN)NC1=O` [Compound 2098] ({CH2CO}-[Dap][Phe(4-CH2NH2)]DWV[Bip][Cit][Orn][dL][Dab][Cha]VTCA-NH2; thioether N-14), the IC50 is 15.7 nM.

For the molecule `Cc1cccc(C[C@@H]2NC(=O)[C@H](CC(=O)O)NC(=O)[C@H](Cc3ccc(OCC(=O)O)cc3)NC(=O)[C@H](Cc3cccnc3)NC(=O)CSC[C@@H](C(=O)NCC(N)=O)NC(=O)[C@H](CO)NC(=O)[C@H](C(C)C)NC(=O)[C@H](CC3CCCCC3)NC(=O)[C@H](Cc3cnc[nH]3)NC(=O)[C@@H](CC(C)C)NC(=O)[C@H](CCCN)NC(=O)[C@H](C(C)C)NC(=O)[C@H](Cc3ccc(-c4ccccc4)cc3)NC(=O)[C@H](CC(C)C)NC2=O)c1` [Compound 1582] ({CH2CO}-[3Pal]Y(Carboxymethyl)D[Phe(3-Me)]L[Bip]V[Orn][dL]H[Cha]VSCG-NH2; thioether N-14), the IC50 worked out at 36.2 nM.

Turning to `Cc1cccc(C[C@@H]2NC(=O)[C@H](CC(=O)O)NC(=O)[C@H](Cc3ccc(C(=O)O)cc3)NC(=O)[C@H](Cc3ccncc3)NC(=O)CSC[C@@H](C(N)=O)NC(=O)[C@H]([C@@H](C)O)NC(=O)[C@H](C(C)(C)C)NC(=O)[C@H](CC3CCCCC3)NC(=O)[C@H](CCN)NC(=O)[C@@H](CC(C)C)NC(=O)[C@H](CCCN)NC(=O)[C@H](CCCNC(N)=O)NC(=O)[C@H](Cc3ccc(-c4ccccc4)cc3)NC(=O)[C@H](C(C)C)NC2=O)c1` [Compound 2266] ({CH2CO}-[4Pal][Phe(4-COOH)]D[Phe(3-Me)]V[Bip][Cit][Orn][dL][Dab][Cha][Tle]TC-NH2; thioether N-14), the IC50 stood at 18.2 nM.

Turning to `Cc1cccc(C[C@@H]2NC(=O)[C@H](CC(=O)O)NC(=O)[C@H](Cc3ccc(OCC(=O)O)cc3)NC(=O)[C@H]([C@@H](C)O)NC(=O)CSC[C@@H](C(N)=O)NC(=O)[C@H](CCC(N)=O)NC(=O)[C@H](C(C)C)NC(=O)[C@H](CC3CCCCC3)NC(=O)[C@H](CCN)NC(=O)[C@@H](CC(C)C)NC(=O)[C@H](CCCN)NC(=O)[C@H](Cc3ccc(OCC(=O)O)cc3)NC(=O)[C@H](Cc3ccc(-c4ccccc4)cc3)NC(=O)[C@H](Cc3ccc(OCC(=O)O)cc3)NC2=O)c1` [Compound 1799] ({CH2CO}-TY(Carboxymethyl)D[Phe(3-Me)]Y(Carboxymethyl)[Bip]Y(Carboxymethyl)[Orn][dL][Dab][Cha]VQC-NH2; thioether N-14), the IC50 is 33.5 nM.

As to `CC(C)C[C@H]1NC(=O)[C@H](CCCN)NC(=O)[C@H](CCC(=O)O)NC(=O)[C@H](Cc2ccc(-c3ccccc3)cc2)NC(=O)[C@H](C(C)C)NC(=O)[C@H](Cc2cccs2)NC(=O)[C@H](CC(=O)O)NC(=O)[C@H](Cc2ccncc2)NC(=O)[C@H](Cc2ccncc2)NC(=O)CSC[C@@H](C(=O)N[C@@H](C)C(N)=O)NC(=O)[C@H]([C@@H](C)O)NC(=O)[C@H](C(C)C)NC(=O)[C@H](CC2CCCCC2)NC(=O)[C@H](CCN)NC1=O` [Compound 2203] ({CH2CO}-[4Pal][4Pal]D[2Thi]V[Bip]E[Orn][dL][Dab][Cha]VTCA-NH2; thioether N-14), the IC50 came to 18.2 nM.

For the molecule `CC[C@H](C)[C@@H]1NC(=O)[C@H](Cc2ccc(-c3ccccc3)cc2)NC(=O)[C@H](C(C)C)NC(=O)[C@H](Cc2c[nH]c3ccccc23)NC(=O)[C@H](CC(=O)O)NC(=O)[C@H](Cc2ccc(OCC(=O)O)cc2)NC(=O)[C@H](CN)NC(=O)CSC[C@@H](C(=O)N[C@@H](C)C(N)=O)NC(=O)[C@H]([C@@H](C)O)NC(=O)[C@H](C(C)C)NC(=O)[C@H](CC(C)C)NC(=O)[C@H](CCN)NC(=O)[C@@H](CC(C)C)NC(=O)[C@H](CCCN)NC1=O` [Compound 1054] ({CH2CO}-[Dap]Y(Carboxymethyl)DWV[Bip]I[Orn][dL][Dab]LVTCA-NH2; thioether N-14), the IC50 came out at 9 nM.

For the molecule `COc1cccc(C[C@@H]2NC(=O)[C@H](CC(=O)O)NC(=O)[C@H](Cc3ccc(OCC(=O)O)cc3)NC(=O)[C@H](CN)NC(=O)CSC[C@@H](C(=O)N[C@@H](C)C(N)=O)NC(=O)[C@H]([C@@H](C)O)NC(=O)[C@H](C(C)C)NC(=O)[C@H](CC3CCCCC3)NC(=O)[C@H](CCN)NC(=O)[C@@H](CC(C)C)NC(=O)[C@H](CCCN)NC(=O)[C@H](CCC(=O)O)NC(=O)[C@H](Cc3ccc(-c4ccccc4)cc3)NC(=O)[C@H](C(C)C)NC2=O)c1` [Compound 1467], the IC50 is 112 nM.

Turning to `CCC(C)[C@@H]1NC(=O)[C@H](Cc2ccc(-c3ccccc3)cc2)NC(=O)[C@H](C(C)C)NC(=O)[C@H](Cc2ccc(F)c(C(F)(F)F)c2)NC(=O)[C@H](CC(=O)O)NC(=O)[C@H](Cc2ccc(OCC(=O)O)cc2)NC(=O)[C@H](CN)NC(=O)CSC[C@@H](C(=O)N[C@@H](C)C(N)=O)NC(=O)[C@H]([C@@H](C)O)NC(=O)[C@H](C(C)C)NC(=O)[C@H](CC2CCCCC2)NC(=O)[C@H](CCN)NC(=O)[C@@H](CC(C)C)NC(=O)[C@H](CCCN)NC1=O` (stereo partly drawn) [Compound 2245], the IC50 is 45.5 nM.

Consider `CCCC[C@@H]1NC(=O)[C@H](CCN)NC(=O)[C@@H](CC(C)C)NC(=O)[C@H](CCCN)NC(=O)[C@H](C(C)C)NC(=O)[C@H](Cc2ccc(-c3ccccc3)cc2)NC(=O)[C@H](CC(C)C)NC(=O)[C@H](Cc2c[nH]c3ccccc23)NC(=O)[C@H](CC(=O)O)NC(=O)[C@H](Cc2ccncc2)NC(=O)[C@H](Cc2ccc(OCC(=O)O)cc2)NC(=O)CSC[C@@H](C(=O)NCC(N)=O)NC(=O)[C@H](CO)NC(=O)[C@H](C(C)C)NC1=O` [Compound 1411] ({CH2CO}-Y(Carboxymethyl)[4Pal]DWL[Bip]V[Orn][dL][Dab][Nle]VSCG-NH2; thioether N-14), for which the IC50 was determined as 9.5 nM.

Turning to `CCC(C)[C@@H]1NC(=O)[C@H](Cc2ccc(-c3ccccc3)cc2)NC(=O)[C@H](C(C)C)NC(=O)[C@H](Cc2c[nH]c3ccccc23)NC(=O)[C@H](CC(=O)O)NC(=O)[C@H](Cc2ccc(-c3cccc(C(=O)O)c3)cc2)NC(=O)[C@H](Cc2ccc(OCC(=O)O)cc2)NC(=O)CSC[C@@H](C(=O)N[C@@H](C)C(N)=O)NC(=O)[C@H]([C@@H](C)O)NC(=O)[C@H](C(C)C)NC(=O)[C@H](CC2CCCCC2)NC(=O)[C@H](CCN)NC(=O)[C@@H](CC(C)C)NC(=O)[C@H](CCCN)NC1=O` (stereo partly drawn) [Compound 2220], the IC50 came to 34.6 nM.

Consider `CC(C)C[C@H]1NC(=O)[C@H](CCCN)NC(=O)[C@H](C(C)C)NC(=O)[C@H](Cc2ccc(-c3ccccc3)cc2)NC(=O)[C@H](C(C)C)NC(=O)[C@H](Cc2cccc(Cl)c2)NC(=O)[C@H](CC(=O)O)NC(=O)[C@H](Cc2ccc(OCC(=O)O)cc2)NC(=O)[C@H](Cc2ccc(OCC(=O)O)cc2)NC(=O)CSC[C@@H](C(=O)N[C@@H](C)C(N)=O)NC(=O)[C@H]([C@@H](C)O)NC(=O)[C@H](C(C)C)NC(=O)[C@H](CC2CCCCC2)NC(=O)[C@H](CCN)NC1=O` [Compound 1573], for which the IC50 was found to be 18.1 nM.
